Test results reported in US12389911B2, “Benzimidazole compound or salt thereof, agricultural and horticultural insecticidal and acaricidal agent containing said compound, and method for using same” (NIHON NOHYAKU CO., LTD., priority 2019, dated 2025).

Test system: Two-spotted spider mite (Tetranychus urticae)
Experiment: Acaricidal action on two-spotted spider mite (kidney bean leaf disk spray)
Assay type: in vivo
Conditions: 500 ppm, adult females, 25° C., two days after treatment
Method: Acaricidal Action on Two-Spotted Spider Mite (Tetranychus urticae)
Leaf disk having a diameter of 2 cm was prepared by leaves of kidney bean, and the leaf disk was placed on the wetted filter paper. Adult hens of two-spotted spider mite were inoculated on the wetted filter paper, and then 50 ml of an agrochemical dispersion, prepared by diluting a formulation containing the benzimidazole compound represented by the general formula (1) of the present invention or salt thereof as an active ingredient to adjust each of the concentrations to 500 ppm, was sprayed on turntable uniformly. After the spraying, it was allowed to stand in a thermostatic chamber at 25° C. Two days after the treatment of an agrochemical dispersion, the dead mites were counted, the corrected mortality rate was calculated according to the formula shown below, and the acaricidal efficacy was evaluated according to the criteria of Test Example 2. This test was conducted in duplicate using 10 adult hens of two-spotted spider per plot. Corrected mortality(%)=(Number of dead mites in a non-treatment plot−Number of dead mites in a treatment plot)/(Number of dead mites in a non-treatment plot)×100 [Expression 4]

CCS(=O)(=O)n1c(-n2cc(C(=O)OC(C)(C)C)c(Cl)n2)nc2ccccc21 [Compound 2-47]
acaricidal efficacy (corrected mortality rate), activity level: D or higher

CCCCOc1nn(-c2nc3ccccc3n2S(=O)(=O)CC)cc1Br [Compound 2-37]
acaricidal efficacy (corrected mortality rate), activity level: D or higher

C#CCOc1nn(-c2nc3ccccc3n2S(=O)(=O)CC)cc1C(=O)OC(C)(C)C [Compound 2-92]
acaricidal efficacy (corrected mortality rate), activity level: D or higher

CCS(=O)(=O)n1c(-n2cc(C(=O)CC(C)C)c(CC(C)C)n2)nc2ccccc21 [Compound 2-142]
acaricidal efficacy (corrected mortality rate), activity level: D or higher

CCS(=O)(=O)n1c(-n2cc(C#CC(C)(C)C)c(C(F)(F)F)n2)nc2ccccc21 [Compound 2-124]
acaricidal efficacy (corrected mortality rate), activity level: D or higher

CCS(=O)(=O)n1c(-n2cc(C(=O)NCC(F)(F)F)c(C(C)(C)C)n2)nc2ccccc21 [Compound 2-94]
acaricidal efficacy (corrected mortality rate), activity level: D or higher

CCS(=O)(=O)n1c(-n2cc(C#CC(C)(C)OC)c(C(F)(F)F)n2)nc2ccccc21 [Compound 2-129]
acaricidal efficacy (corrected mortality rate), activity level: D or higher

CCS(=O)(=O)n1c(-n2cc(C(=O)OC(C)(C)C)c(C(F)(F)C(F)(F)F)n2)nc2ccccc21 [Compound 2-90]
acaricidal efficacy (corrected mortality rate), activity level: D or higher

CCS(=O)(=O)n1c(-n2cc(C(=O)N(C)OC)c(C(F)(F)F)n2)nc2ccccc21 [Compound 2-30]
acaricidal efficacy (corrected mortality rate), activity level: D or higher

CCS(=O)(=O)n1c(-n2cc(CCc3ccccc3)c(C#N)n2)nc2ccccc21 [Compound 2-109]
acaricidal efficacy (corrected mortality rate), activity level: D or higher

CCS(=O)(=O)n1c(-n2cc(CCC(C)(C)C)c(C(F)(F)F)n2)nc2ccccc21 [Compound 2-127]
acaricidal efficacy (corrected mortality rate), activity level: D or higher

CCS(=O)(=O)n1c(-n2cc(C(=O)OC(C)(C)C)c(OC(F)F)n2)nc2ccccc21 [Compound 2-139]
acaricidal efficacy (corrected mortality rate), activity level: D or higher

CCCC#Cc1cn(-c2nc3ccccc3n2S(=O)(=O)CC)nc1C(F)(F)F [Compound 2-122]
acaricidal efficacy (corrected mortality rate), activity level: D or higher

CCS(=O)(=O)n1c(-n2cnc(C(C)(C)C)c2)nc2ccccc21 [Compound 1-5]
acaricidal efficacy (corrected mortality rate), activity level: D or higher

CCS(=O)(=O)n1c(-n2cc(C#Cc3ccccc3)c(OCC(F)(F)F)n2)nc2ccccc21 [Compound 2-100]
acaricidal efficacy (corrected mortality rate), activity level: D or higher

CCS(=O)(=O)n1c(-n2cc(Br)c(OC(F)(F)C(=O)N(C)C)n2)nc2ccccc21 [Compound 2-136]
acaricidal efficacy (corrected mortality rate), activity level: D or higher

CCS(=O)(=O)n1c(-n2cc(C(=O)c3ccccc3)c(C(F)(F)F)n2)nc2ccccc21 [Compound 2-59]
acaricidal efficacy (corrected mortality rate), activity level: D or higher

CCOc1nn(-c2nc3ccccc3n2S(=O)(=O)CC)cc1C(=O)OC(C)(C)C [Compound 2-73]
acaricidal efficacy (corrected mortality rate), activity level: D or higher

CCS(=O)(=O)n1c(-n2nc(C(F)(F)F)c(Br)c2C)nc2ccccc21 [Compound 2-18]
acaricidal efficacy (corrected mortality rate), activity level: D or higher

CCS(=O)(=O)n1c(-n2cc(CCC(=O)OC(C)(C)C)c(C(=O)OC(C)(C)C)n2)nc2ccccc21 [Compound 2-135]
acaricidal efficacy (corrected mortality rate), activity level: D or higher

CCS(=O)(=O)n1c(-n2ccc(OCCCC(=O)OC(C)(C)C)n2)nc2ccccc21 [Compound 2-103]
acaricidal efficacy (corrected mortality rate), activity level: D or higher

CCS(=O)(=O)n1c(-n2cc(C(C)=O)c(C(F)(F)F)n2)nc2ccccc21 [Compound 2-25]
acaricidal efficacy (corrected mortality rate), activity level: D or higher

CCS(=O)(=O)n1c(-n2cc(CCC(=O)OC(C)(C)C)c(OCC(F)(F)F)n2)nc2ccccc21 [Compound 2-102]
acaricidal efficacy (corrected mortality rate), activity level: D or higher
